Patent US20250109162A1, “FLEX-NUCLEOSIDE ANALOGUES, NOVEL THERAPEUTICS AGAINST VIRUSES” (UNIVERSITY OF MARYLAND, BALTIMORE COUNTY, priority 2022, published 2025)
“And” between values parts separate entries of the source, which are not always exact repeats. Equal values may be shown once. Read-outs that look alike come from different tables or passages of the source.

Columns and labels:
[1] = Cytotoxicity in HBV (Tavis) assay (Table 8); format: cell-based
HBV = HBV (Tavis) EC50 (Table 8); format: cell-based; details: Hepatitis B virus
[2] = system: Epstein-Barr virus, strain Akata; test: microbe, parasite or virus in culture; format: cell-based; details: for EC90: read-out: EC90 - compound concentration that reduces viral replication by 90%
HHV-6B, Z29 = test: microbe, parasite or virus in culture; format: cell-based, human herpesvirus 6; details: Human betaherpesvirus 6, MOLT-3
EBOV (VP30, Huh) = test: microbe, parasite or virus in culture; format: cell-based, Ebola Virus; details: Zaire ebolavirus
BK, Gardner = test: microbe, parasite or virus in culture; format: cell-based, BK virus (aka Human polyomavirus 1); details: Betapolyomavirus hominis
Akata cells = details: human
Enterovirus = test: microbe, parasite or virus in culture; format: cell-based
[3] = system: Ebola Virus, strain Zaire; format: cell-based
Vero cells = details: African green monkey
[4] = system: Chikungunya Virus, strain S27, ATCC VR-64; test: microbe, parasite or virus in culture; format: cell-based
CHIKV = CHIKV IC50 (Table 8); format: cell-based; details: Chikungunya virus
DENV2 = DENV2 IC50 (Table 8); format: cell-based, Dengue Virus 2; details: Dengue virus
[5] = system: MERS Coronavirus, strain EMC; format: cell-based
[6] = system: Dengue Virus 2, strain New Guinea C; format: cell-based
HPV11 replicon = format: cell-based, Human papillomavirus
[7] = human gammaherpesvirus 4, Akata

O=c1[nH]c(=O)n([C@@H]2C[C@@H](O)[C@H](CO)O2)cc1-c1cccs1 [CHK-02, 1-((2S,4R,5S)-4-hydroxy-5-(hydroxymethyl)tetrahydrofuran-2-yl)-5-(thiophen-2-yl)pyrimidine-2,4(1H,3H)-dione]
CC50 [1]: > 32 µM | EC50 (HBV): < 0.32 µM | EC50 [2, 7]: 10.7 µM | CC50 (in vitro): > 150 µM | EC50 (HHV-6B, Z29): 11.1 µM | EC50 (EBOV (VP30, Huh)): 20.6 µM | EC50 (BK, Gardner): < 0.048 µM

Cc1ccc(-c2cn([C@@H]3C[C@@H](O)[C@H](CO)O3)c(=O)[nH]c2=O)s1 [CHK-03, 1-((2S,4R,5S)-4-hydroxy-5-(hydroxymethyl)tetrahydrofuran-2-yl)-5-(5-methylthiophen-2-yl)pyrimidine-2,4(1H,3H)-dione]
CC50 (Akata cells): > 100 µM

Nc1nc(=O)n([C@@H]2C[C@@H](O)[C@H](CO)O2)cc1-c1ccco1 [CHK-05, 4-amino-5-(furan-2-yl)-1-((2S,4R,5S)-4-hydroxy-5-(hydroxymethyl)tetrahydrofuran-2-yl)pyrimidin-2(1H)-one]
EC50 (Enterovirus): 24 µM | CC50 (Huh7 cells; human): > 100 µM | EC50 [3]: 18 µM | EC90 [2, 7]: > 100 µM | CC50 (Vero cells): > 100 µM | CC50 (Akata cells): > 100 µM | EC50 [4]: > 42 µM | EC50 ([4]; Chikungunya virus): > 68 µM

Nc1nc(=O)n([C@@H]2C[C@@H](O)[C@H](CO)O2)cc1-c1cccs1 [CHK-06, 4-amino-1-((2S,4R,5S)-4-hydroxy-5-(hydroxymethyl)tetrahydrofuran-2-yl)-5-(thiophen-2-yl)pyrimidin-2(1H)-one]
IC50 (CHIKV): 76.2 µM

Cc1ccc(-c2cn([C@@H]3C[C@@H](O)[C@H](CO)O3)c(=O)nc2N)o1 [CHK-08, 4-amino-1-((2S,4R,5S)-4-hydroxy-5-(hydroxymethyl)tetrahydrofuran-2-yl)-5-(5-methylfuran-2-yl)pyrimidin-2(1H)-one]
IC50 (DENV2): 74 µM

Nc1ccn(C[C@@H](CO)OCP(=O)(O)O)c(=O)n1 [Cidofovir, reference compound]
EC50 ([2]; read-out: EC50 - compound concentration that reduces viral replication by 50%): 5.94 µM | EC90 [2]: 73.5 µM

O=c1nc(NO)ccn1[C@@H]1O[C@H](CO)[C@@H](O)[C@H]1O [EIDD-1931]
CC50 (Vero 76 cells): >10 µg/mL | EC50 [5]: 0.036 µg/mL and 0.034 µg/mL | CC50 (HVero 76 cells): >100 µg/mL

NC(=O)c1nc(F)c[nH]c1=O [Favipiravir, reference compound]
CC50 (Vero cells): > 1000 µM

C#C[C@@]1(O)[C@H](O)[C@@H](CO)O[C@H]1n1ccc2c(N)ncnc21 [NITD008]
EC50 [6]: 0.36 µM and 0.43 µM | CC50 (Huh7 cells): > 100 µM

Nc1nc2c(ncn2CCOCP(=O)(O)O)c(=O)[nH]1 [PMEG]
EC50 (HPV11 replicon): 2 to 9.2 µM
